# Reference: ChEMBL document CHEMBL1201862, “PubChem BioAssay data set” (2004)
# The source made the active and inactive calls.
# How the values were obtained:
# Beta-galactosidase = Beta-galactosidase (Escherichia coli, UniProt Q8VNN2); test: Dose response counterscreen for EBI2 assay utilizing the enzyme, b-galactosidase.; assay type: functional
# Galanin receptor type 3 = Galanin receptor type 3 (Homo sapiens, UniProt O60755); test: Fluorescence-based cell-based primary high throughput dose response assay to identify antagonists of the Galanin Receptor 3 (GalR3).; assay type: functional
# cells [1] = assay type: functional, cell-based; settings: HEK-CNG
# [2] = biological target: ADP-ribosylation factor GTPase-activating protein 1 (Rattus norvegicus, UniProt Q62848); test: Fluorescence polarization-based biochemical high throughput dose response screening assay to identify inhibitors of ADP-ribosylation factor GTPase activating protein 1 (ARFGAP1).; assay type: functional
# [3] = human group III sPLA2 inhibitors, dose response, biochemical, QFRET, IC50 (AID 743457);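 also: green fluorescence rise as the enzyme cleaves BODIPY PC-A2 in liposomes; potency for inhibition of the enzyme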
# [4] = biological target: Induced myeloid leukemia cell differentiation protein Mcl-1 (Homo sapiens, UniProt Q07820); assay type: functional
# [5] = biological target: T1, Small ubiquitin-related modifier 1 (Homo sapiens, UniProt P63165); test: inhibitors of SUMO1 peptide binding, dose response, biochemical, fluorescence polarization, uHTS hits (AID 624382); assay type: functional; settings: read-out: IC50_Mean
# T1 sequence (P63165 whole entry): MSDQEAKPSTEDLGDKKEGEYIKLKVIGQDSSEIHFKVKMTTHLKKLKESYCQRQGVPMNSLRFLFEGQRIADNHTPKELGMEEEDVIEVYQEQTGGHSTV
# [6] = biological target: T1, Small ubiquitin-related modifier 1; test: inhibitors of SUMO1 partner interactions, dose response, biochemical, FRET (AID 624383); assay type: functional; settings: read-out: IC50_Mean
# [7] = MC4R antagonists, dose response, counter-screen for LGR2 antagonist project, cell-based, plate reader, cherry pick (AID 743444); assay type: functional;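 also: transfected HEK 293 cells stimulated with alpha-MSH peptide; potency of inhibitors of the alpha-MSH evoked signal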
# [8] = LGR2 antagonists, dose response, cell-based, HEK293, CRE-luciferase reporter, cherry pick, set 2 (AID 743343); assay type: functional;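 also: transfected cells were stimulated with diluted bursicon conditioned medium after compound addition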
# [9] = HEK293 cell cytotoxicity, dose response, cytotoxicity control, plate reader, cherry-picked samples (AID 743446); assay type: functional, cell-based
# [10] = HepG2 cell cytotoxicity, dose response, cytotoxicity control, plate reader, cherry-pick, antagonist series (AID 743416); assay type: functional, cell-based
# [11] = A549 cell cytotoxicity, dose response, cytotoxicity control, plate reader, cherry-pick, antagonist series (AID 743412); assay type: functional, cell-based
# INS1 = test: beta cell apoptosis inhibitors, cytokine rescue, dose response, luminescence, retest (AID 449756); assay type: functional, cell-based; settings: Rattus norvegicus;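 also: cell death triggered by IL-1 beta plus TNF-alpha plus IFN-gamma mixture; protective hits raise ATP signal compared with cytokine alone wells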
# [12] = biological target: T2, COUP transcription factor 2 (Homo sapiens, UniProt P24468); test: Luminescence-based cell-based high throughput dose response assay to identify inhibitors of COUP-TFII (NR2F2).; assay type: functional;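 also: HEK293 cells transiently cotransfected with COUP-TFII expression vector and reporter; luciferase reporter luminescence driven by COUP-TFII from the pX2-168 reporter plasmid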
# T2 sequence (P24468 whole entry): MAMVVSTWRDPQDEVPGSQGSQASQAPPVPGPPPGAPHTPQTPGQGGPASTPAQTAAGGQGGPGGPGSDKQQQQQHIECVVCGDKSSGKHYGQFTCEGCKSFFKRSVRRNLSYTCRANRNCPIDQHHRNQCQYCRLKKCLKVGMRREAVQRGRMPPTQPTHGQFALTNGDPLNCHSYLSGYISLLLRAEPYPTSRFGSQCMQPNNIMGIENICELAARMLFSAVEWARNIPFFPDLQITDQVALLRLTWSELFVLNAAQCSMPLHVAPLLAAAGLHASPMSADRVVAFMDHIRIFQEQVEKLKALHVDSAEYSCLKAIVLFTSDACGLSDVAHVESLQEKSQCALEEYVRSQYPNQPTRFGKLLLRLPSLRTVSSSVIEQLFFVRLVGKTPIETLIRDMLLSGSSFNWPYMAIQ
# [13] = HepG2 cell cytotoxicity, dose response, cytotoxicity control for Shn3 inhibitor project, CellTiter-Glo, cherry-picked (AID 624134); assay type: functional, cell-based
# [14] = control 3'UTR Renilla luciferase suppression, dose response, counter-screen for Shn3 inhibitor project, cell-based, Clone20-Shn3RL, cherry-picked (AID 624133); assay type: functional
# [15] = Shn3 3'UTR reporter inhibitors, dose response, cell-based, Clone20 osteoblasts, firefly luciferase, cherry-picked (AID 624132); assay type: functional;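 also: firefly luciferase luminescence from reporter carrying the Shn3 3'UTR in osteoblasts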
# [16] = biological target: 5-hydroxytryptamine receptor 2A (Mus musculus, UniProt P35363); assay type: functional, cell-based;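 also: CHO-K1 cells with tagged receptor and beta-arrestin; agonist potency measured as compound-induced activation of the receptor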
# Mu-type opioid receptor = Mu-type opioid receptor (Homo sapiens, UniProt P35372); assay type: functional, cell-based;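 also: U2OS cells with beta-arrestin recruitment to OPRM1 by beta-gal complementation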
# cells [17] = assay type: functional, cell-based
# [18] = biological target: T3, Nuclear receptor subfamily 0 group B member 1 (Homo sapiens, UniProt P51843); assay type: functional, cell-based;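 also: HEK293T cells transfected with SF-1 and DAX-1 plus StAR promoter luciferase reporter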
# T3 sequence (P51843 whole entry): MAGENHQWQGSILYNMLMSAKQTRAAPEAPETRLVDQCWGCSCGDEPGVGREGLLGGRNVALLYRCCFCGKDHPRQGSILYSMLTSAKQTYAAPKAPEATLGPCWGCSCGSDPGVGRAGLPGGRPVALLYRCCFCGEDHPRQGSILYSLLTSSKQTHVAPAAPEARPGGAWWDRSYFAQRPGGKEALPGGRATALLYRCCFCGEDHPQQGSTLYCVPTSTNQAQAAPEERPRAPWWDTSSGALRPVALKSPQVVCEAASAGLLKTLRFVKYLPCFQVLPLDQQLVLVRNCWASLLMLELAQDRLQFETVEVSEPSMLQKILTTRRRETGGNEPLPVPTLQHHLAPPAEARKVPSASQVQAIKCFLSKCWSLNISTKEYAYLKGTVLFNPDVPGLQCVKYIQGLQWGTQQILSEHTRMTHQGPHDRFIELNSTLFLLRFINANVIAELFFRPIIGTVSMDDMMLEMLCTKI
# [19] = biological target: T4, Sentrin-specific protease 8 (Homo sapiens, UniProt Q96LD8); assay type: functional
# T4 sequence (Q96LD8 whole entry): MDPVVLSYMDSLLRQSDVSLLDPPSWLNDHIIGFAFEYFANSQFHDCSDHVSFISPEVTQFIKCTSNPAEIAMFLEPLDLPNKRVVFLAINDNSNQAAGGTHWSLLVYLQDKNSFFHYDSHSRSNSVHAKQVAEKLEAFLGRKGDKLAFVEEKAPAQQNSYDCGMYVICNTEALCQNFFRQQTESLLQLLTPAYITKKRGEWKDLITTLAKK
# [20] = biological target: T4, Sentrin-specific protease 8; assay type: functional; remark: listed apart in the source
# [21] = biological target: T5, Low molecular weight phosphotyrosine protein phosphatase (Homo sapiens, UniProt P24666); assay type: functional; settings: read-out: IC50_Mean
# T5 sequence (P24666 whole entry): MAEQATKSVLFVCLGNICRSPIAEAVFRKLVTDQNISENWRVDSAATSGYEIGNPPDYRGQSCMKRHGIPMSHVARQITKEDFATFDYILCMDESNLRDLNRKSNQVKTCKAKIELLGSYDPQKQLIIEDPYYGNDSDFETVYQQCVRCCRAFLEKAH
# Beta-lactamase [22] = biological target: Beta-lactamase (Pseudomonas aeruginosa, UniProt Q79MP6);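 also: biochemical dose-response test of metallo-beta-lactamase enzyme inhibition, read out by epi-absorbance; purified recombinant IMP-1 metallo-beta-lactamase with nitrocefin as substrate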
# Beta Lactamase = Beta Lactamase (Pseudomonas aeruginosa, UniProt Q932Y6);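 also: confirmatory high-throughput screen measuring VIM-2 metallo-beta-lactamase inhibition by epi-absorbance in dose response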
# Beta Lactamase, sequence (Q932Y6 whole entry): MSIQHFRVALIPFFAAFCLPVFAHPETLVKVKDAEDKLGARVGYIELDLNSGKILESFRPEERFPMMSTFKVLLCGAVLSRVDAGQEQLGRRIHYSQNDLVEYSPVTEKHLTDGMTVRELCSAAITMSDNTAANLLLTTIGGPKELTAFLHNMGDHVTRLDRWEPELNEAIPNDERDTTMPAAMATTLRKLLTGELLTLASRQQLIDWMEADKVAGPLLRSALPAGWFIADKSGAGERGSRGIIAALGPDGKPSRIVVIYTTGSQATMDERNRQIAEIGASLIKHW
# Prothrombin = Prothrombin (Bos taurus, UniProt P00735); test: thrombin inhibition, dose response, biochemical, fluorescence polarization, uHTS hits (AID 602369); assay type: functional
# [23] = biological target: T5, Low molecular weight phosphotyrosine protein phosphatase; assay type: functional; settings: read-out: IC50_Mean; remark: listed apart in the source
# [24] = biological target: 26S proteasome non-ATPase regulatory subunit 14 (Homo sapiens, UniProt O00487); test: inhibition of proteasome subunit RPN11 – biochemical, fluorescence polarization, uHTS hits, confirmation (AID 602368); assay type: functional
# [25] = biological target: 72 kDa type IV collagenase (Homo sapiens, UniProt P08253); test: Dose Response validation of uHTS RPN11 inhibitor hits using a MMP-2 Fluorescence assay.; assay type: functional
# Beta-lactamase [26] = biological target: Beta-lactamase (Salmonella choleraesuis (strain SC-B67), UniProt Q5J463)
# Beta-lactamase (Salmonella choleraesuis (strain SC-B67), UniProt Q5J463), sequence (Q5J463 whole entry): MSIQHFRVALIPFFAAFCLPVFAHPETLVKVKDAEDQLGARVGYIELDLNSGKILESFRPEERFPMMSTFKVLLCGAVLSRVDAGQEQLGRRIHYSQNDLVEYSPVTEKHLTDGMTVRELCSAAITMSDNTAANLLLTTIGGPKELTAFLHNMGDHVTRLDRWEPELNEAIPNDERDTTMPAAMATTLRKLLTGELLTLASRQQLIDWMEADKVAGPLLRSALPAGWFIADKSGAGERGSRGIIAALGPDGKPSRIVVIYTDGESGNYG
# [27] = biological target: T6, Trace amine-associated receptor 1 (Homo sapiens, UniProt Q96RJ0); test: Counterscreen for agonists of the human trace amine associated receptor 1 (hTAAR1): Fluorescence-based cell-based high throughput dose response assay to identify hTAAR1 agonist that also desensitize TAAR1 receptor response.; assay type: functional
# T6 sequence (Q96RJ0 whole entry): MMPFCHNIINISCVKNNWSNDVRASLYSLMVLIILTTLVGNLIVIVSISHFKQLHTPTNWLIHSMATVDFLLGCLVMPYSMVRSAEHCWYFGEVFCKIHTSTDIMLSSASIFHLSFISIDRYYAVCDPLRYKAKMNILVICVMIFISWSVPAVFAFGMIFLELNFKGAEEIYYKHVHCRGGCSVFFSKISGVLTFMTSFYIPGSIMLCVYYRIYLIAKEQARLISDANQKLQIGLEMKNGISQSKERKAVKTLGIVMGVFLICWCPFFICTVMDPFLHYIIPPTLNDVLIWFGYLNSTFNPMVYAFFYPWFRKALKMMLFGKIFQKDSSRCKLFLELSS
# [28] = biological target: T6, Trace amine-associated receptor 1; test: Fluorescence-based cell-based high throughput dose response assay to identify agonists of the human trace amine associated receptor 1 (TAAR1).; assay type: functional
# cells [29] = assay type: functional, cell-based; remark: listed apart in the source
# cells [30] = assay type: functional, cell-based; remark: listed apart in the source
# [31] = biological target: T7, Voltage-gated N-type calcium channel alpha-1B subunit/Amyloid beta A4 precursor protein-binding family A member 1 (Homo sapiens, UniProt Q00975+Q02410); assay type: protein assay
# T7 sequence (Q00975 whole entry): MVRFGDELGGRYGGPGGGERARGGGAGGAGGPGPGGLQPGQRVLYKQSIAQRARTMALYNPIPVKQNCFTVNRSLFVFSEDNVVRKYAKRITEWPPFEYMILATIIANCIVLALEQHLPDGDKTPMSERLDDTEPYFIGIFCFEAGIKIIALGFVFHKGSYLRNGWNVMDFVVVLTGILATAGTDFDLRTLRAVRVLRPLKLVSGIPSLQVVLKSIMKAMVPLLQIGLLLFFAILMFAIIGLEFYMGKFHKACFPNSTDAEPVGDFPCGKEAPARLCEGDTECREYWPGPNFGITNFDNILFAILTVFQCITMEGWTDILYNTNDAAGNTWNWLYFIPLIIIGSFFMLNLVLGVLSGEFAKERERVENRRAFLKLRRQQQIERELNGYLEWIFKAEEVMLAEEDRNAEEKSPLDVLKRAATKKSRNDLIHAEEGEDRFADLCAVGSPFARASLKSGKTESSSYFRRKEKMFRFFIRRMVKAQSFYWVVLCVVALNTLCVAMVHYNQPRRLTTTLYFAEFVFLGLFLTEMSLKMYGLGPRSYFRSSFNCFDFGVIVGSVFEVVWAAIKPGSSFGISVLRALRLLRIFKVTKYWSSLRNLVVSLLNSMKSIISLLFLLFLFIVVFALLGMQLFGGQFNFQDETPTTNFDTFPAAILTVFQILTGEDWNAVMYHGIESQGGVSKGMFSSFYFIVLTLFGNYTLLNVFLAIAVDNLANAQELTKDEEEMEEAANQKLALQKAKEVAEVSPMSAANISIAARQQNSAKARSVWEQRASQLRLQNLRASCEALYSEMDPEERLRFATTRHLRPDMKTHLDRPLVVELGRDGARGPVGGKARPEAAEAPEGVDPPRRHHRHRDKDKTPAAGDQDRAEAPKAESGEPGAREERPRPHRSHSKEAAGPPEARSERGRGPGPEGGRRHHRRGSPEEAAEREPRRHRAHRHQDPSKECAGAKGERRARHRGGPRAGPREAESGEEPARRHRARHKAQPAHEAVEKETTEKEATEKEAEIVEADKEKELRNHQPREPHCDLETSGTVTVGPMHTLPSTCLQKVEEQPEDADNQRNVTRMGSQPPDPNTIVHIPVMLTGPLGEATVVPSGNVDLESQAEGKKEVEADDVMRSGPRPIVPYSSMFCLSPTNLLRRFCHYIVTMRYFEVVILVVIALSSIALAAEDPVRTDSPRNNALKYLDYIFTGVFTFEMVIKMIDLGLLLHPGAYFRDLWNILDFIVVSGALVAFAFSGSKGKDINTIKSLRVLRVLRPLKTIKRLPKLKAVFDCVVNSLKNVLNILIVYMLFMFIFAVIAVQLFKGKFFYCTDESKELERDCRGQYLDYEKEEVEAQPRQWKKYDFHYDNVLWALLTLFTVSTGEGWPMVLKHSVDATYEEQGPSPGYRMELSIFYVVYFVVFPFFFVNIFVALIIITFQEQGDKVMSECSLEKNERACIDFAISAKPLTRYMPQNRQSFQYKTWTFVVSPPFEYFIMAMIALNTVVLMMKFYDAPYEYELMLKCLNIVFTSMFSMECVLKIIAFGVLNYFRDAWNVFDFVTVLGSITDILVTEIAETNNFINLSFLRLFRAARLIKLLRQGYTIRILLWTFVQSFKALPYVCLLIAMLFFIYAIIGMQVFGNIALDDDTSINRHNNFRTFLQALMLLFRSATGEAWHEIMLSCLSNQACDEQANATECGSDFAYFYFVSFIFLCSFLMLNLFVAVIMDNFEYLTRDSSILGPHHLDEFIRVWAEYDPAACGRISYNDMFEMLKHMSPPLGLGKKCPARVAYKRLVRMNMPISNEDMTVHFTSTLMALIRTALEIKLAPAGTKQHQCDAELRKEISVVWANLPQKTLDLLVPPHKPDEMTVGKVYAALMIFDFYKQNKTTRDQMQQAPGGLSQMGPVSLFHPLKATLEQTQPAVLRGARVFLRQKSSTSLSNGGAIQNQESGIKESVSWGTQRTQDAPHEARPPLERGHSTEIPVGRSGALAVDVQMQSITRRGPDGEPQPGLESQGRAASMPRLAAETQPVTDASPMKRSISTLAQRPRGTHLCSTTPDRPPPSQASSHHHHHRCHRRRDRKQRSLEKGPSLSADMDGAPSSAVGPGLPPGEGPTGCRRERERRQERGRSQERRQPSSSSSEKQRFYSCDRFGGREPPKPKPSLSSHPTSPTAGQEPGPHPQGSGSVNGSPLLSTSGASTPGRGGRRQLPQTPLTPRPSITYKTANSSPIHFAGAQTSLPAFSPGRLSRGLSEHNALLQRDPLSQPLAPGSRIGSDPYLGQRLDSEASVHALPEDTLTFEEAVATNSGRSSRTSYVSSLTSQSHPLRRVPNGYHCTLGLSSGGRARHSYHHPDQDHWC
# T7 sequence (Q02410 whole entry): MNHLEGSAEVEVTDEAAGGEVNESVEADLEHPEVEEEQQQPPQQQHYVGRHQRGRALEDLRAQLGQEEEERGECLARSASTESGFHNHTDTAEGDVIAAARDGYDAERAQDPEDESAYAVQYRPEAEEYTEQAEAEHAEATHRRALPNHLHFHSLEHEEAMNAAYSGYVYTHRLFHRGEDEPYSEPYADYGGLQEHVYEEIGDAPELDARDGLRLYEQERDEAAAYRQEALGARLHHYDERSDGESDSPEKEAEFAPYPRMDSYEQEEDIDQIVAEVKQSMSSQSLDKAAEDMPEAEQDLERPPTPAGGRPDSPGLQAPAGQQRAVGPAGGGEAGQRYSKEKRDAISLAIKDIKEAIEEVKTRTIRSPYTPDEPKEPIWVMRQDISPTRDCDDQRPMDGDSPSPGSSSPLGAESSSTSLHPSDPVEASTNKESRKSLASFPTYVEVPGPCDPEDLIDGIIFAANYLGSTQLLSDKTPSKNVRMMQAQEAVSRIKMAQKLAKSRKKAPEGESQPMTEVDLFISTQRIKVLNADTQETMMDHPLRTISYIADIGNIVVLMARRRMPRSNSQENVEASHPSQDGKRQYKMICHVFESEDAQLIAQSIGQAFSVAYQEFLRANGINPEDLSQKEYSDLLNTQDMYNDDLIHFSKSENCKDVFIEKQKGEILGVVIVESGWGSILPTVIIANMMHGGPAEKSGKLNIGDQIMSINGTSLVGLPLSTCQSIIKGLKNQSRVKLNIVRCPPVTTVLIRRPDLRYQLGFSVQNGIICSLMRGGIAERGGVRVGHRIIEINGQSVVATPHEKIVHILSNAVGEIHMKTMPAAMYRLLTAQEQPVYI
# [32] = biological target: T8, Rac GTPase-activating protein 1 (Homo sapiens, UniProt Q9H0H5); test: MgcRacGAP GTPase-activating activity inhibitors, confirmation, biochemical, ADP Hunter fluorescence, primary and confirmatory (AID 624330); assay type: functional
# T8 sequence (Q9H0H5 whole entry): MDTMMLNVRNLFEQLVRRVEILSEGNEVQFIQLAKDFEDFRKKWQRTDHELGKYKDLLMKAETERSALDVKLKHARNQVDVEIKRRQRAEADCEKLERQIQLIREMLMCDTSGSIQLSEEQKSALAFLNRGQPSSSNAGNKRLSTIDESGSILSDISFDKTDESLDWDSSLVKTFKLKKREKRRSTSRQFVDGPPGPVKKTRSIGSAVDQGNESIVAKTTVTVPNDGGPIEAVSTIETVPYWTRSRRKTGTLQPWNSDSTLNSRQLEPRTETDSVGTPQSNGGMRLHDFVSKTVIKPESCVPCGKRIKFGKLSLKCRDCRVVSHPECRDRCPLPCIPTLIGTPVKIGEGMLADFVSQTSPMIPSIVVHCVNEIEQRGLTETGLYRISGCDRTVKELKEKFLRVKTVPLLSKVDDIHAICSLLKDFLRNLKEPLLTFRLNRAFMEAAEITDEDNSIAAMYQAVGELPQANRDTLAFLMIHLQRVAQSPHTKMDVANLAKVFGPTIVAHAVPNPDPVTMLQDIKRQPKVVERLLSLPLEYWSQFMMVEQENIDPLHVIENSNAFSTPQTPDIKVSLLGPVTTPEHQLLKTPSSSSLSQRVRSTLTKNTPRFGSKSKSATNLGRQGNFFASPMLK
# [33] = biological target: T7, Voltage-gated N-type calcium channel alpha-1B subunit/Amyloid beta A4 precursor protein-binding family A member 1; assay type: protein assay; remark: listed apart in the source
# Beta-galactosidase, sequence (Q8VNN2 whole entry): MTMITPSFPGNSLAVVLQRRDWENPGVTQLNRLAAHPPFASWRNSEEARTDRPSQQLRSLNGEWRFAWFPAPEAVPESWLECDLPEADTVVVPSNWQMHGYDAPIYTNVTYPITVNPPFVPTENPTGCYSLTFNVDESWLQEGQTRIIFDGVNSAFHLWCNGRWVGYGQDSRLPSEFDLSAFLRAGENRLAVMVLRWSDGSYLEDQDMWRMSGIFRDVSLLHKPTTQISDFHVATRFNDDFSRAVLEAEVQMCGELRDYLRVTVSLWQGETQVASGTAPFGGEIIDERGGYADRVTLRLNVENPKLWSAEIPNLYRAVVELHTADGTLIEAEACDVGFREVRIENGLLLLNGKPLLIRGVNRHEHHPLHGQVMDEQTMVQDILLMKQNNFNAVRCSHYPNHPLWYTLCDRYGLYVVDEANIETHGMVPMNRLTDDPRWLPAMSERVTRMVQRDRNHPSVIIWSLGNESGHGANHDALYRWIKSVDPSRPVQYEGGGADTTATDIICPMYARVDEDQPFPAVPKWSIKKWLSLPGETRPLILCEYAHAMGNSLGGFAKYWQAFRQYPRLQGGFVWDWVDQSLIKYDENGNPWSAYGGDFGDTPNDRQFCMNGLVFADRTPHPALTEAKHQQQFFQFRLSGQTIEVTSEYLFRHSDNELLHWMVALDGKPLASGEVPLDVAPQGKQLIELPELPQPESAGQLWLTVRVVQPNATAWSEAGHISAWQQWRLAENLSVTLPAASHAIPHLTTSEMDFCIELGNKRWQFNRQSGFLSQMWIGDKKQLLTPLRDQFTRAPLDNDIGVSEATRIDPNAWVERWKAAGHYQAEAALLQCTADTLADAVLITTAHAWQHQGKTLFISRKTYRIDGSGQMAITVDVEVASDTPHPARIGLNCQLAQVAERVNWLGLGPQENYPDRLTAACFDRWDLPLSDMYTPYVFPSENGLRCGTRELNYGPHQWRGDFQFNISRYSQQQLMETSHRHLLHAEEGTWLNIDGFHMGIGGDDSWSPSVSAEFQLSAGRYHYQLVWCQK
smiles,measurement,setting,value
Cc1cc(C)c(S(=O)(=O)N2CCN(C(=O)C3COc4ccccc4O3)CC2)c(C)c1 (stereo not drawn),IC50,Beta-galactosidase,> 80 µM (inactive)
Cc1ccc(-c2sc(C(=O)NN)c(C)c2C#N)cc1,IC50,Galanin receptor type 3,> 29.9 µM (inactive)
same,EC50,cells [1],> 29.9 µM (inactive)
COc1cc(/C=C2\SC(N)=NC2=O)ccc1OCC(=O)Nc1ccc(C)cc1,IC50,[2],28.3 µM (inactive)
Cc1ccccc1OCCCN1C(=O)C(=O)c2cccc(C)c21,IC50,[3],> 122 µM (inactive)
O=C(NC1CC1)c1cc(-c2ccco2)nc2ccccc12,IC50,[4],1.71 µM (active)
same,IC50,[5],> 66.6 µM (inactive)
same,IC50,[6],8.06 µM (active)
Cc1c(Cl)c(C(=O)NN=C(S)NCc2ccco2)nn1C,IC50,[3],> 122 µM (inactive)
Cc1ccc(-c2cnc3c(Cl)c(C)nn3c2)cc1,AC50,[7],8.19 µM (active)
same,AC50,[8],7.53 µM (active)
same,AC50,[9],31.5 µM (active)
same,AC50,[10],40.8 µM (active)
same,AC50,[11],5.87 µM (active)
O=C(CSc1nnc(Cn2nnc3ccccc32)o1)N(Cc1ccc(Cl)cc1)c1ccccc1,AC50,INS1,4.83 µM (active)
same,IC50,[12],4.19 µM (active)
same,AC50,[13],6.74 µM (active)
same,IC50,Galanin receptor type 3,1.11 µM (active)
same,EC50,cells [1],> 29.9 µM (inactive)
same,AC50,[14],11.9 µM (active)
same,AC50,[15],2.29 µM (active)
C/C(=C\c1ccccc1)CN1CCN(c2ccccc2)CC1,EC50,[16],76.1 µM (inactive)
same,EC50,Mu-type opioid receptor,92.5 µM (inactive)
CCC1CCCCN1C(=O)CCS(=O)(=O)c1ccccc1 (stereo not drawn),IC50,cells [17],> 67.6 µM (inactive)
same,IC50,[18],> 67.6 µM (inactive)
Cc1cccc(N2C(=O)/C(=C\c3ccc(C(=O)O)cc3)c3ccccc3C2=O)c1,IC50,[19],6.45 µM (active)
same,IC50,[20],> 100 µM (inactive)
O=C(CSc1ccc(Br)cc1)N1CCN(C(=O)c2ccco2)CC1,IC50,Beta-galactosidase,> 80 µM (inactive)
COc1ccc(/C(C)=N/NC(=O)c2nnn(-c3nonc3N)c2-c2ccccc2)cc1,IC50,[21],> 80 µM (inactive)
same,IC50,Beta-lactamase [22],> 59.6 µM (inactive)
same,IC50,Beta Lactamase,> 59.6 µM (inactive)
same,IC50,Prothrombin,> 100 µM (inactive)
same,IC50,[23],35.2 µM (inactive)
same,IC50,[24],30.2 µM (active)
same,IC50,[25],8.15 µM (active)
same,IC50,Beta-lactamase [26],> 59.6 µM (inactive)
O=C(NCCc1ccccc1Cl)[C@@H]1CCCN1C(=O)[C@@H](NS(=O)(=O)c1ccc(F)cc1F)c1ccccc1,IC50,[27],5.69 µM (active)
same,EC50,[28],12.4 µM (inactive)
same,IC50,cells [29],> 29.9 µM (inactive)
same,EC50,cells [30],> 29.9 µM (inactive)
CC(C)n1cc(/C=N/Nc2ccc(Cl)c(C(=O)O)c2)c2ccccc21,IC50,[31],> 50 µM (inactive)
same,IC50,[32],102 µM (active)
same,IC50,Beta-lactamase [22],> 59.6 µM (inactive)
same,IC50,[33],41.8 µM (active)
same,IC50,Beta Lactamase,> 59.6 µM (inactive)
same,IC50,[5],> 66.6 µM (inactive)
same,IC50,[6],3.26 µM (active)
same,IC50,Beta-lactamase [26],> 59.6 µM (inactive)
